The source made the active and inactive calls. The rule behind the calls is not given here.
Tests used:
[1] = target: T1, Metabotropic glutamate receptor 4 (Homo sapiens, UniProt Q14833); assay: Positive allosteric modulator activity at human mGlu4 receptor expressed in CHO cells expressing Gqi5 by calcium mobilization assay; assay type: functional, cell-based
[2] = target: T1, Metabotropic glutamate receptor 4; assay: Positive allosteric modulation of human mGlu4 receptor expressed in CHO cells coexpressing Gqi5 assessed as potentiation of glutamate-induced calcium mobilization at 30 uM relative to (-)-PHCCC; assay type: functional, cell-based
Cytochrome P450 3A4 = Cytochrome P450 3A4 (Homo sapiens, UniProt P08684); assay: Inhibition of CYP3A4 in human liver microsomes using 1-hydroxymidazolam as substrate; assay type: ADME
Cytochrome P450 3A4, sequence (P08684 whole entry): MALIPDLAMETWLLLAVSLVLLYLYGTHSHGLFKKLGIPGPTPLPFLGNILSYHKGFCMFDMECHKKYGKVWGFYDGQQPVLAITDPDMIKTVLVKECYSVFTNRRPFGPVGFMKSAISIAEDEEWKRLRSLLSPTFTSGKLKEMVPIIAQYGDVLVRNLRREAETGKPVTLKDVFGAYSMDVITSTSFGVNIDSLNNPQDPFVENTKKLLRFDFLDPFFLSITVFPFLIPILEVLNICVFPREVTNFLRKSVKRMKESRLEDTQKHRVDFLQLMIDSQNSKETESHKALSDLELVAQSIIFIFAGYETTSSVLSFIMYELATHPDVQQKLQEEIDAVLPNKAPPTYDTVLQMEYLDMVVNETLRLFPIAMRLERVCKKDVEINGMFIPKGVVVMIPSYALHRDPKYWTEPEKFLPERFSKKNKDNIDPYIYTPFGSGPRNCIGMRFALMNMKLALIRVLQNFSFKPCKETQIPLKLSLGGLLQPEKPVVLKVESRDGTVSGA

Cytochrome P450 2D6 = Cytochrome P450 2D6 (Homo sapiens, UniProt P10635); assay: Inhibition of CYP2D6 in human liver microsomes using dextrophan tartarate as substrate; assay type: ADME
Cytochrome P450 2D6, sequence (P10635 whole entry): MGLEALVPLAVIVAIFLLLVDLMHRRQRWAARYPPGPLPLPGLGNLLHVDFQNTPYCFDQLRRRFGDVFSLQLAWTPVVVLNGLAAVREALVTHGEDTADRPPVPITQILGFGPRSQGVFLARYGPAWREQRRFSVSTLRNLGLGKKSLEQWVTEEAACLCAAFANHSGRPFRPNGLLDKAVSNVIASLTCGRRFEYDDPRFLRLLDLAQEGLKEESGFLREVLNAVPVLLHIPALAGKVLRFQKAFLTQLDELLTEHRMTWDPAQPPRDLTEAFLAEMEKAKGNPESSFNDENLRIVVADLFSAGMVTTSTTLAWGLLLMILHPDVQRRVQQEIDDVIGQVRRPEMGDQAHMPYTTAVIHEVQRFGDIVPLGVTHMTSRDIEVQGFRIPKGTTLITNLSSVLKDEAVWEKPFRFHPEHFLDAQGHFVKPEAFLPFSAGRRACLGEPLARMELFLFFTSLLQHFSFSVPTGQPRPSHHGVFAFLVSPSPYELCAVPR

Cytochrome P450 1A2 = target: T2, Cytochrome P450 1A2 (Homo sapiens, UniProt P05177); assay: Inhibition of CYP1A2 in human liver microsomes using acetaminophen as substrate; assay type: ADME
T2 sequence (P05177 whole entry): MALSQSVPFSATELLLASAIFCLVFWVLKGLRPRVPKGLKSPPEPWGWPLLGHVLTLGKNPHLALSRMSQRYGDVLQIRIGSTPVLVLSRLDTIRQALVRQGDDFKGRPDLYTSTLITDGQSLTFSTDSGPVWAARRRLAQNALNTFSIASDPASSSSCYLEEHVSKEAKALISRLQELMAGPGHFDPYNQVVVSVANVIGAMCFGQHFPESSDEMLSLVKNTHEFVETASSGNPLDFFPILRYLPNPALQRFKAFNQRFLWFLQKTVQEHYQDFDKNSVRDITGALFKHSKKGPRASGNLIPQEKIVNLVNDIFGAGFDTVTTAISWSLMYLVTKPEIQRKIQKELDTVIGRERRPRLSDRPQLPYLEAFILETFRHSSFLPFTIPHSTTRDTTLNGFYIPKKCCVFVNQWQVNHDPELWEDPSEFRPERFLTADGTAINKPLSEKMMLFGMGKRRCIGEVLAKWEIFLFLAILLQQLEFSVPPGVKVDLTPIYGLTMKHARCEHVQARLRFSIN

Cytochrome P450 2C9 = Cytochrome P450 2C9 (Homo sapiens, UniProt P11712); assay: Inhibition of CYP2C9 in human liver microsomes using 4-hydroxydiclofenac as substrate; assay type: ADME
Cytochrome P450 2C9, sequence (P11712 whole entry): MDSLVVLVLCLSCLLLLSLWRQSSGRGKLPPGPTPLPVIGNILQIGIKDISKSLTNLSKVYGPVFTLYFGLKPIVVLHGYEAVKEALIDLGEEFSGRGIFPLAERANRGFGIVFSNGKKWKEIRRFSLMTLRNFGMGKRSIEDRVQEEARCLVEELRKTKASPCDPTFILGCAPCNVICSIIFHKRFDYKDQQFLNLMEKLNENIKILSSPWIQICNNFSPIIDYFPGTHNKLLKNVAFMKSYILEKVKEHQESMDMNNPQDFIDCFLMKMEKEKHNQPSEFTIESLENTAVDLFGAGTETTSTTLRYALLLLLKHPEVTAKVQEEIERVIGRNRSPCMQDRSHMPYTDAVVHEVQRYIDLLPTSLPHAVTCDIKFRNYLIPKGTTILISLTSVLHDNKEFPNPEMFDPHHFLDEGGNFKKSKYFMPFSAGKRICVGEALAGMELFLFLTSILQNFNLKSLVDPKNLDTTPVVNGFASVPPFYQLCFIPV

[3] = Clearance in Sprague-Dawley rat by LC/MS analysis; assay type: ADME, organism-based; conditions: in vivo
[4] = Volume of distribution at steady state in Sprague-Dawley rat by LC/MS analysis; assay type: ADME, organism-based; conditions: in vivo, read-out: Vdss
[5] = Half life in Sprague-Dawley rat by LC/MS analysis; assay type: ADME, organism-based; conditions: in vivo
[6] = Ratio of drug level in brain to plasma in rat at 0.25 mg/kg, iv infused at 0.25 hr rate through cassette dosing schedule; assay type: ADME, organism-based
[7] = Binding affinity to human P-gp assessed as efflux ratio by cell based assay; assay type: ADME
Rattus norvegicus [8] = assay: Reversal of haloperidol-induced catalepsy in Sprague-Dawley rat at 1 mg/kg, po administered 60 mins after haloperidol-challenge measured after 30 mins; assay type: functional, organism-based
[9] = Drug level in brain of Sprague-Dawley rat model of haloperidol-induced catalepsy at 1 mg/kg, po administered 60 mins after haloperidol-challenge measured after 30 mins; assay type: ADME, organism-based; conditions: read-out: Drug uptake
Brain [10] = assay: Partition coefficient in brain of Sprague-Dawley rat model of haloperidol-induced catalepsy at 1 mg/kg, po administered 60 mins after haloperidol-challenge measured after 30 mins; assay type: ADME, organism-based; conditions: 0.5 h
[11] = Ratio of drug level in brain of Sprague-Dawley rat model of haloperidol-induced catalepsy at 1 mg/kg, po to EC50 for positive allosteric modulator activity at rat mGlu4 receptor
[12] = target: Metabotropic glutamate receptor 4 (Rattus norvegicus, UniProt P31423); assay: Positive allosteric modulator activity at rat mGlu4 receptor
Metabotropic glutamate receptor 4 (Rattus norvegicus, UniProt P31423), sequence (P31423 whole entry): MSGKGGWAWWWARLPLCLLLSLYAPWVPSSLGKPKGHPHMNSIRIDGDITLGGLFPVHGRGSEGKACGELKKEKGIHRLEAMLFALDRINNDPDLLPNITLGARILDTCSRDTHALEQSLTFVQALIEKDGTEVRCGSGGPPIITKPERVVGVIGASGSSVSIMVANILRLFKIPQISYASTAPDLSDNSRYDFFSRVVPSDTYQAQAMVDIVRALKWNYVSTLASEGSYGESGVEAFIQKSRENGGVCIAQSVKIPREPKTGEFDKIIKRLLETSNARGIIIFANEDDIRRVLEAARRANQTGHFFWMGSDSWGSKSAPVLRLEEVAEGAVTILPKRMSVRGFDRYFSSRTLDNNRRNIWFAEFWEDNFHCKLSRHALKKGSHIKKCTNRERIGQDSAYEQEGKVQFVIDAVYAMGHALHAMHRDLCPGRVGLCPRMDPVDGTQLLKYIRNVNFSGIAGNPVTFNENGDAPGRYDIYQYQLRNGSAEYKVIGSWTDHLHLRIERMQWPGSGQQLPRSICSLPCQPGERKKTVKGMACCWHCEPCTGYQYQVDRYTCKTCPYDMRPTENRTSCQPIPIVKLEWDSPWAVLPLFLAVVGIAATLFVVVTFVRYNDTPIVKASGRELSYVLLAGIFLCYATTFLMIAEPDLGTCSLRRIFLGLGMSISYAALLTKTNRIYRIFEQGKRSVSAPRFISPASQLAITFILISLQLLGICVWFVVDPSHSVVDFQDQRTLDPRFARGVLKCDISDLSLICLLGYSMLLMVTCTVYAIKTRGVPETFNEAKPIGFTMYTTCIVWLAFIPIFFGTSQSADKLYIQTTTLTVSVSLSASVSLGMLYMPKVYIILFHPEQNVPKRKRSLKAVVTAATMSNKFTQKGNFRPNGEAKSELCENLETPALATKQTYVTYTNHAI

[13] = Intrinsic clearance in rat hepatic microsomes; assay type: ADME, Liver; conditions: read-out: CLH
[14] = Intrinsic clearance in human hepatic microsomes; assay type: ADME, Liver; conditions: read-out: CLH
[15] = Fraction unbound in human plasma; assay type: ADME, cell-free
Plasma = assay: Fraction unbound in rat plasma; assay type: ADME, cell-free
Rattus norvegicus [16] = assay: Reversal of haloperidol-induced catalepsy in orally dosed Sprague-Dawley rat administered 60 mins after haloperidol-challenge measured after 30 mins; assay type: functional; conditions: po, read-out: MED
Rattus norvegicus [17] = assay: Reversal of haloperidol-induced catalepsy in Sprague-Dawley rat at 3 mg/kg, po administered 60 mins after haloperidol-challenge measured after 30 mins; assay type: functional, organism-based
[18] = Drug level in brain of Sprague-Dawley rat model of haloperidol-induced catalepsy at 1 to 10 mg/kg, po administered 60 mins after haloperidol-challenge measured after 30 mins; assay type: ADME, organism-based; conditions: read-out: Drug uptake
Brain [19] = assay: Partition coefficient in brain of Sprague-Dawley rat model of haloperidol-induced catalepsy at 1 to 10 mg/kg, po administered 60 mins after haloperidol-challenge measured after 30 mins; assay type: ADME, organism-based; conditions: 0.5 h
[20] = Ratio of drug level in brain of Sprague-Dawley rat model of haloperidol-induced catalepsy at 1 to 10 mg/kg, po to EC50 for positive allosteric modulator activity at rat mGlu4 receptor
Rattus norvegicus [21] = assay: Reversal of haloperidol-induced catalepsy in Sprague-Dawley rat at 10 mg/kg, po administered 60 mins after haloperidol-challenge measured after 30 mins; assay type: functional, organism-based

T1 sequence (Q14833 whole entry): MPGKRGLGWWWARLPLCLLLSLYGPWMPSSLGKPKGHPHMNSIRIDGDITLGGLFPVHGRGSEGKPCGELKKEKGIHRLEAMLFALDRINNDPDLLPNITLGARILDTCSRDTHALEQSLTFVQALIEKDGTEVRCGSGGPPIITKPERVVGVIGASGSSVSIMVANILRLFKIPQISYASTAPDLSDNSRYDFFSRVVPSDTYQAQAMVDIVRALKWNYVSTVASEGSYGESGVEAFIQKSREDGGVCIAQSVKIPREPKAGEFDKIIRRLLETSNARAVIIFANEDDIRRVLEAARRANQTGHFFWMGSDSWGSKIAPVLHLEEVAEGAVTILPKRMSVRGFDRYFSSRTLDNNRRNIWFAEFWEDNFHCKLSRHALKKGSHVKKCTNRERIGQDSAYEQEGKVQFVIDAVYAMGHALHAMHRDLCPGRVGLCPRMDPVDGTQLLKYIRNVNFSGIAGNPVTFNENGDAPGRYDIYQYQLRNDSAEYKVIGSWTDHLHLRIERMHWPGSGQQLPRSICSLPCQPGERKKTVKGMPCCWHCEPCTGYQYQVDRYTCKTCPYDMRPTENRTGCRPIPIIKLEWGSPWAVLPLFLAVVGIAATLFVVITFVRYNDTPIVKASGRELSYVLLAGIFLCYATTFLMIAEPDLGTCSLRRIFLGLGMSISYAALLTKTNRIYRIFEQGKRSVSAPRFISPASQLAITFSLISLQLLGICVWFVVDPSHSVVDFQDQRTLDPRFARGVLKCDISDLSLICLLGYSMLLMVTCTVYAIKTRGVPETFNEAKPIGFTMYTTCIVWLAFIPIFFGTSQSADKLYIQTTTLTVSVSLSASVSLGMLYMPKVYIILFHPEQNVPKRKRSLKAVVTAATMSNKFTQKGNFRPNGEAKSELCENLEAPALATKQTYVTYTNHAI

SMILES	EC50 ([1]; read-out: EC50)	%max [2]	EC50 ([1]; read-out: pEC50 (converted))	other results
CCc1cnc(Oc2ccc(NC(=O)c3ccncc3N)cc2Cl)nc1	> 10000 nM	44.2%		
CC1c2ccccc2C(=O)N1c1ccc(NC(=O)c2ncccc2N)cc1Cl (stereo not given)		76.8%	3980 nM	
Nc1cccnc1C(=O)Nc1ccc(N2CCc3ccccc3C2=O)c(Cl)c1		60.7%	912 nM	
Nc1cccnc1C(=O)Nc1ccc(N2CC(c3c(F)cccc3Cl)CC2=O)c(Cl)c1 (stereo not given)		75.9%	1860 nM	
Nc1cccnc1C(=O)Nc1ccc(N2CC(c3cccnc3)CC2=O)c(Cl)c1 (stereo not given)		92.8%	2510 nM	
Nc1cccnc1C(=O)Nc1ccc(N2CC3(CCCC3)CC2=O)c(Cl)c1	> 10000 nM	13.8%		
Nc1cccnc1C(=O)Nc1ccc(N2Cc3ccccc3C2=O)c(Cl)c1		43.9%	234 nM	
Nc1cccnc1C(=O)Nc1ccc(N2Cc3ccccc3CC2=O)c(Cl)c1		63.2%	2190 nM	
CCc1cnc(Oc2ccc(NC(=O)c3nccnc3N)cc2Cl)nc1	296 nM	104%		
Nc1cccnc1C(=O)Nc1ccc(N2CC3(CCCCC3)CC2=O)c(Cl)c1		52%	1290 nM	
Nc1cccnc1C(=O)Nc1ccc(N2C(=O)c3ccccc3C2=O)c(Cl)c1		89.1%	95.5 nM	IC50 (Cytochrome P450 3A4): > 30000 nM; IC50 (Cytochrome P450 2D6): > 30000 nM; IC50 (Cytochrome P450 1A2): > 30000 nM; IC50 (Cytochrome P450 2C9): 7200 nM; clearance [3]: 3.98 mL/min/kg; Vd [4]: 0.85 L/kg; half-life [5]: 3.7 h; Kp [6]: 1.31; Ratio [7]: 1.2; Activity (Rattus norvegicus [8]): Active; concentration at 0.5 h [9]: 334 nM; Kp (Brain [10]): 0.3; Ratio [11]: 2; EC50 [12]: 128 nM; CLint scaled [13]: 51 mL/min/kg; CLint scaled [14]: 5.8 mL/min/kg; Fu [15]: 0.007; Fu (Plasma): 0.003
O=C(Nc1ccc(N2C(=O)c3ccccc3C2=O)c(Cl)c1)c1ncccc1O	125 nM	115%		
COc1ccc2c(c1)C(=O)N(c1ccc(NC(=O)c3ncccc3N)cc1Cl)C2		71.7%	316 nM	
CC1(C)CC(=O)N(c2ccc(NC(=O)c3ncccc3N)cc2Cl)C1	> 10000 nM	12.7%		
CCc1cnc(Oc2ccc(NC(=O)c3ncccc3N)cc2Cl)nc1		97.9%	64.6 nM	IC50 (Cytochrome P450 3A4): 21100 nM; IC50 (Cytochrome P450 2D6): > 30000 nM; IC50 (Cytochrome P450 1A2): 2600 nM; IC50 (Cytochrome P450 2C9): > 30000 nM; clearance [3]: 13.7 mL/min/kg; Vd [4]: 0.86 L/kg; half-life [5]: 1.5 h; Kp [6]: 0.36; Ratio [7]: 1.9; minimal effective dose (Rattus norvegicus [16]): 1 mg/kg; Activity (Rattus norvegicus [17]): Active; concentration at 0.5 h [18]: 172 nM; Kp (Brain [19]): 0.2; Ratio [20]: 3.5; EC50 [12]: 46.6 nM; CLint scaled [13]: 46.1 mL/min/kg; CLint scaled [14]: 17.7 mL/min/kg; Fu [15]: 0.004; Fu (Plasma): 0.004
Nc1cccnc1C(=O)Nc1ccc(N2CC(Cc3ccccc3)CC2=O)c(Cl)c1 (stereo not given)		45.3%	759 nM	
Nc1cccnc1C(=O)Nc1ccc(N2Cc3ncccc3C2=O)c(Cl)c1		68.9%	1260 nM	
Nc1cccnc1C(=O)Nc1ccc(N2C(=O)C3CCC2C3)c(Cl)c1 (stereo not given)	> 10000 nM	47.7%		
Nc1cccnc1C(=O)Nc1ccc(N2CCCC2=O)c(Cl)c1	> 10000 nM	39.6%		
Fc1ccc(Nc2n[nH]c3cccnc23)cc1Cl				Activity (Rattus norvegicus [8]): Active; Activity (Rattus norvegicus [21]): Active
CC(C)CC1CC(=O)N(c2ccc(NC(=O)c3ncccc3N)cc2Cl)C1 (stereo not given)		74.5%	1620 nM	
Cc1cccc2c1C(=O)N(c1ccc(NC(=O)c3ncccc3N)cc1Cl)C2=O		122%	692 nM	
CC1(C2CC2)CC(=O)N(c2ccc(NC(=O)c3ncccc3N)cc2Cl)C1 (stereo not given)		66.2%	2820 nM	
Cc1ncc(Oc2ccc(NC(=O)c3ncccc3N)cc2Cl)cn1		89.8%	1350 nM	
Nc1cccnc1C(=O)Nc1ccc(N2Cc3ccc(Cl)cc3C2=O)c(Cl)c1	> 10000 nM	42.3%		
Nc1cccnc1C(=O)Nc1cccc(Cl)c1	587 nM	88.1%	575 nM	
